Experimental data published in paper PMC9393390 (Frontiers in Pharmacology, 2022).
Like-named read-outs stand apart in the source and are kept apart here.

How the values were obtained:
SARS-CoV-2-RBD (S-RBD) = molecular target: T1, SARS-CoV-2-RBD (S-RBD) (Severe acute respiratory syndrome coronavirus 2, UniProt P0DTC2); experiment: Surface plasmon resonance (SPR) binding to immobilized S-RBD
T1 construct: purchased Sino Biological

hACE2 = molecular target: T2, hACE2 (Homo sapiens, UniProt Q9BYF1); experiment: Surface plasmon resonance (SPR) binding to immobilized hACE2
T2 construct: purchased Sino Biological
Procedure: The recombinant S-RBD (Sino Biological, Beijing, China) and hACE2 protein (Sino Biological, Beijing, China) were used for surface plasmon resonance (SPR) analysis using a Biacore 8K instrument (Biacore, Uppsala, Sweden) as previously described ([Chu et al., 2018a]; [Chu et al., 2018b]). Each target was immobilized onto flow cells in a CM5 sensor chip (GE Healthcare) via the amine-coupling method. Briefly, S-RBD was diluted in 10 mM pH 5.5 acetate to 20 µg/ml, while hACE2 was diluted in 10 mM pH 4.5 acetate to 20 µg/ml. Then the protein solutions were injected individually on the carboxyl modified sensor surface to form amine bonds. Both S-RBD and hACE2 immobilized levels were about 10,000 RU. Binding analyses were carried out at 25 °C and a flow rate of 30 μl min^−1. The retrieved drugs in a running buffer (1×PBS, 0.05% Tween 20 and 5% dimethyl sulfoxide, pH 7.4) were run over each target at gradient concentrations as indicated. An empty flow cell, without any immobilized protein, was used as a deducted reference. The binding curves were analyzed using a kinetic binding model supplied with Biacore Evaluation Software (GE Healthcare).
To evaluate the retrieved inhibitors against the S-RBD-hACE2, surface plasmon resonance (SPR) was used to determine the binding affinities of the 20 retrieved drugs to S-RBD and hACE2.
SPR analysis was performed to assess the retrieved drugs binding to hACE2 at gradient concentrations. The binding curves were analyzed using a kinetic analysis supplied with Biacore Evaluation Software. Data are presented as RU over time (s). The K D were calculated using a 1:1 binding model.

S-RBD binding to hACE2 [1] = molecular target: S-RBD binding to hACE2 (Severe acute respiratory syndrome coronavirus 2, UniProt P0DTC2); experiment: Competitive inhibition ELISA (SARS-CoV-2 inhibitor screening kit); format: biochemical; details: 1 μM
S-RBD binding to hACE2 [2] = molecular target: T3, S-RBD binding to hACE2 (Homo sapiens, UniProt Q9BYF1); experiment: SPR competition binding experiment (S-RBD on immobilized hACE2); details: competitive SPR, 40 nM S-RBD, 25 μM to 0.012 μM
T3 construct: purchased Sino Biological

[3] = SPR, 25 °C, 1:1 binding model, read-out: S-RBD K D
[4] = SPR, 25 °C, 1:1 binding model, read-out: ACE2 K D

T2 sequence (Q9BYF1 18-805): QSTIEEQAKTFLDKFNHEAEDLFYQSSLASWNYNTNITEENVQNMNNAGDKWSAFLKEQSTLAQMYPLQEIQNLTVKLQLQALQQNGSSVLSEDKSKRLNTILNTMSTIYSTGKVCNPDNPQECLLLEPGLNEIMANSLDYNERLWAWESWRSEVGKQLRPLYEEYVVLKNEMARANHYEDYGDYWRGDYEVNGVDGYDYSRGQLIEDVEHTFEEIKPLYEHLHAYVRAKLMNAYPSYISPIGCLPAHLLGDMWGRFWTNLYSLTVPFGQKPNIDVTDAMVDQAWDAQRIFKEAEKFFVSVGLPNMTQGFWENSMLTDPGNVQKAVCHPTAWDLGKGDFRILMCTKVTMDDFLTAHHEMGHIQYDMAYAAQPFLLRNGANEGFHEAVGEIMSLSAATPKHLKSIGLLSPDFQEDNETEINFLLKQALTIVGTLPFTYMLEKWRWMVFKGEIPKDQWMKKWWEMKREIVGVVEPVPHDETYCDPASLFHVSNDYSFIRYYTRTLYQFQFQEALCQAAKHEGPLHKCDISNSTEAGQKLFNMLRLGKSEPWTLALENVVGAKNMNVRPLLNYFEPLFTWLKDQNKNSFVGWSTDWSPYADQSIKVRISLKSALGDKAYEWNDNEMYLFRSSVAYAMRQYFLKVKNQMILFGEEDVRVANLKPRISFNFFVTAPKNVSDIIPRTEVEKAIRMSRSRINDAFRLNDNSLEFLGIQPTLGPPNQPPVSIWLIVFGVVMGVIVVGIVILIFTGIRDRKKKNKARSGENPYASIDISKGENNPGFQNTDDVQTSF
T3 sequence (Q9BYF1 18-740): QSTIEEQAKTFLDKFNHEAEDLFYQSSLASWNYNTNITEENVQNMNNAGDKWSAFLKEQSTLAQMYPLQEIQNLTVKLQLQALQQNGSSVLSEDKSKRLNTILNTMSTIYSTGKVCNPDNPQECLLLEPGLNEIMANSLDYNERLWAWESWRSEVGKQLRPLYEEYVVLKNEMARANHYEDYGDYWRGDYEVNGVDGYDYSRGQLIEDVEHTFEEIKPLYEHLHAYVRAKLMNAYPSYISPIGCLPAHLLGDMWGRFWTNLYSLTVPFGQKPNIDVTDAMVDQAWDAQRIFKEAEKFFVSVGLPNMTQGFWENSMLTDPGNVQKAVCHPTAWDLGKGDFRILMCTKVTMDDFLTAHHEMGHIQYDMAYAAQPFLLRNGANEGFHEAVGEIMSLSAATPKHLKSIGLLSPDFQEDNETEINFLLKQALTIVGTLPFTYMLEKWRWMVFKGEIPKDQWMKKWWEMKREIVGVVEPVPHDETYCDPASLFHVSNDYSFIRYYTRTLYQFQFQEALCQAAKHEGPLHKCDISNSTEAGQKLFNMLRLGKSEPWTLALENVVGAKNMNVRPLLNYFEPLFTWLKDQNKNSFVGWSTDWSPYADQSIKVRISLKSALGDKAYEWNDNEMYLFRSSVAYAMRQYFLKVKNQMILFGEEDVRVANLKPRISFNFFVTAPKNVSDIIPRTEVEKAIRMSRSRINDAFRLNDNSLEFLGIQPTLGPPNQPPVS

## Nc1c(Br)cc(Br)cc1CN[C@H]1CC[C@H](O)CC1 [Ambroxol]
SARS-CoV-2-RBD (S-RBD)
  Kd: 21.2 µM

## C[C@@H]1[C@H](O)[C@@H](C)/C=C/C=C/C=C/C=C/C=C/C=C/C=C/[C@H](O[C@@H]2O[C@H](C)[C@@H](O)[C@H](N)[C@@H]2O)C[C@@H]2O[C@](O)(C[C@@H](O)C[C@@H](O)[C@H](O)CC[C@@H](O)C[C@@H](O)CC(=O)O[C@H]1C)C[C@H](O)[C@H]2C(=O)O [Amphotericin B]
SARS-CoV-2-RBD (S-RBD)
  Kd: 1.01 µM
hACE2
  Kd: 9.49 µM

## Cc1ccc([C@@H]2O[C@H](CO)[C@@H](O)[C@H](O)[C@H]2O)cc1Cc1ccc(-c2ccc(F)cc2)s1 [Canagliflozin]
SARS-CoV-2-RBD (S-RBD); [3]
  Kd: 23.1 µM

## Cc1cc(OCCCS(C)(=O)=O)cc(C)c1-c1cccc(COc2ccc3c(c2)OC[C@H]3CC(=O)O)c1 [Fasiglifam]
SARS-CoV-2-RBD (S-RBD)
  Kd: 42.2 µM
hACE2
  Kd: 10.5 µM

## COC(=O)C1=CO[C@@H](O[C@@H]2O[C@H](CO)[C@@H](O)[C@H](O)[C@H]2O)[C@@H]2C(CO)=CC[C@H]12 [Geniposide]
SARS-CoV-2-RBD (S-RBD)
  Kd: 54.9 µM

## CC(C)=CCC[C@](C)(O[C@@H]1O[C@H](CO[C@@H]2O[C@@H](CO)[C@H](O)[C@H]2O)[C@@H](O)[C@H](O)[C@H]1O)[C@H]1CC[C@]2(C)[C@@H]1[C@H](O)C[C@@H]1[C@@]3(C)CC[C@H](O[C@@H]4O[C@H](CO)[C@@H](O)[C@H](O)[C@H]4O[C@@H]4O[C@H](CO)[C@@H](O)[C@H](O)[C@H]4O)C(C)(C)[C@@H]3CC[C@]12C [Ginsenoside Rc]
SARS-CoV-2-RBD (S-RBD)
  Kd: 79.8 µM

## CC[C@H](C)C(=O)O[C@H]1CCC=C2C=C[C@H](C)[C@H](CC[C@@H]3C[C@@H](O)CC(=O)O3)[C@H]21 [Mevastatin]
SARS-CoV-2-RBD (S-RBD)
  Kd: 273 µM

## C[C@@H]1[C@H](O)[C@@H](C)/C=C/C=C/CC/C=C/C=C/C=C/C=C/C(O[C@H]2O[C@H](C)[C@@H](O)[C@H](N)[C@@H]2O)CC2O[C@](O)(CC(O)C(O)CCC(O)CC(O)CC(O)CC(=O)O[C@H]1C)CC(O)C2C(=O)O (some centres unmarked) [Nystatin]
SARS-CoV-2-RBD (S-RBD); [3]
  Kd: 215 µM

## COC(=O)C1=CC[C@@]23CC[C@@H]([C@@](C)(/C=C/C=C(\C)C(=O)O)OC2=O)[C@@]3(OC(C)=O)CC1 [Pseudolaric acid B]
hACE2
  Kd: 53.8 µM

## CCC(C)(C)C(=O)O[C@H]1C[C@@H](C)C=C2C=C[C@H](C)[C@H](CC[C@@H]3C[C@@H](O)CC(=O)O3)[C@H]21 [Simvastatin]
hACE2
  Kd: 35.8 µM

## O=S(=O)(O)Oc1ccc(C(c2ccc(OS(=O)(=O)O)cc2)c2ccccn2)cc1 [Sodium Picosulfate]
SARS-CoV-2-RBD (S-RBD)
  Kd: 16 µM
hACE2
  Kd: 45.4 µM

## O=C(OCC1OC(OC(=O)c2cc(O)c(O)c(OC(=O)c3cc(O)c(O)c(O)c3)c2)C(OC(=O)c2cc(O)c(O)c(OC(=O)c3cc(O)c(O)c(O)c3)c2)C(OC(=O)c2cc(O)c(O)c(OC(=O)c3cc(O)c(O)c(O)c3)c2)C1OC(=O)c1cc(O)c(O)c(OC(=O)c2cc(O)c(O)c(O)c2)c1)c1cc(O)c(O)c(OC(=O)c2cc(O)c(O)c(O)c2)c1 (centres unmarked) [Tannic acid]
hACE2; read-out: ACE2 K D, SPR, 25 °C, 1:1 binding model
  Kd: 8.55 µM
S-RBD binding to hACE2 [1]
  prevention of S-RBD binding to hACE2: prevented S-RBD from binding to hACE2
S-RBD binding to hACE2 [2]
  interference with binding of S-RBD to hACE2: interfered with the binding of the S-RBD to hACE2 in a dose-dependent manner

## Aescin
hACE2; [4]
  Kd: 105 µM

## Sodium aescinate
SARS-CoV-2-RBD (S-RBD); [3]
  Kd: 16.8 µM

## Teichomycin
hACE2; [4]
  Kd: 250 µM
